Laboratory results published in US5231107A, “Derivatives of the oxime of 1,2,5,6-tetrahydropyridine 3-carboxaldehyde, the process for their preparation, their use as medicaments and the compositions containing them” (priority 1987, dated 1993).
Like-named read-outs stand apart in the source and are kept apart here.

Assays:
[1] = system: ileum isolated from guinea-pig; assay: Test of ileum isolated from guinea-pig; conditions: Cavia porcellus, agonist activity, Tyrode solution, 37° C., read-out: pD2 (negative logarithm of the dose which produces 50% of the maximum effect) (converted)
Description: Pieces of ileum are removed from guinea-pigs killed by decapitation. The isolated ileum is placed in 10 cm^3 of Tyrode solution at 37° C. and aerated with a mixture of oxygen (95%) and carbon dioxide gas (5%). The contractions due to the products are registered by means of a detector connected to a polygraph. […].
The possible antagonist activity of the products is tested vis-a-vis acetylcholine.
The agonist activity is expressed in pD2 (negative logarithm of the dose which produces 50% of the maximum effect).
The antagonist activity is expressed in DE50 (dose reducing by 50% the maximum response induced by acetylcholine).

in vivo [2] = assay: in vivo; parameters: species or system male mice (CD1 Charles Rivers); conditions: oral route, male CD1 mice, method of Miller and Tainter; for ED50: mouse, in vivo, read-out: DE50 (dose which causes diarrhoea in 50% of the animals)
Description: The test is carried out on male mice (CD1 Charles Rivers) weighing 25 to 30 g, which have fasted for 6 hours. The product dissolved at 5% in methocel is administered by oral route by means of an oesophage probe.
Control animals receive only the excipient.
After treatment, the animals are placed separately in cages of which the base is covered with blotting paper, and they are put under observation for 30, 60, 120 and 180 minutes.
The sheets of absorbent paper are changed after each observation.
The consistency of the feces is evaluated according to the method of Randall and Baruth (Arch. Int. Pharmacodyn. 220, 94, 1976) according to the following scale of values.
1: feces slightly soft, with or without a damp halo,
2: feces slightly soft, with a well-defined circle of humidity,
3: feces soft with a large circle of humidity,
4: feces without consistency with a very large circle of humidity.
For each product, the dose is noted which causes diarrhoea in 50% of the animals according to the method of Miller and Tainter (Proc. Soc. Exp. Biol. Med., 57, 261, 1944).

Hypothermic activity = type: in vivo, male mice (CD1 Charles Rivers); conditions: Mus musculus, read-out: Effective dose (-1° C.)
Description: (§1) The test is carried out on male mice (CD1 Charles Rivers) weighing 25-30 g, which have fasted for 6 hours.
The temperature of the body is noted by means of a thermocouple inserted about 1.5 cm in the rectum and connected to an electric temperature recorder.
The products are administered by oral or sub-cutaneous route and the temperatures are noted at the instant 0 and at 30 minutes, 1 hour, 2 hours and 2-and-a-half hours after treatment.
The degree of hypothermia is evaluated as the difference between the treated animals and the controls, and the dose necessary to reduce the body temperature by 1° C. is noted.

[3] = system: central cholinergic system; conditions: in vivo; cited from earlier work
[4] = intravenous route; cited from earlier work
in vivo [5] = conditions: mouse, po
Description: The test was carried out on male mice (CD1 Charles Rivers), of 22 to 24 g, without food for 16 hours. […] The mortality is noted during the 7 days following the treatment.

[6] = Variation of the body temperature (duration of action); type: in vivo, male mice (CD1 Charles Rivers)
Description: as §1
The temperature of the body is noted by means of a thermocouple inserted about 1.5 cm in the rectum and connected to an electric temperature recorder. […]
The duration of action of the products is determined, using the doses able to reduce the temperature by 1° to 1.5° C.

SMILES: COC(=O)C1=CCCN(C)C1 [Arecoline, arecoline, reference compound]
- EC50 [1]: 0.331 µM
- DE50 (dose which causes diarrhoea in 50% of the animals) (in vivo [2]): 35 mg/kg
- ED (-1 C) (Hypothermic activity; oral route (O.R.)): 194 mg/kg
- ED (-1 C) (Hypothermic activity; sub-cutaneous route (SC.R)): 3 mg/kg
- duration of action of arecoline [3]: short duration of action
- effect on patients having a memory defect [4]: positive effect

SMILES: CON=CC1=CCCN(C(=O)Oc2ccc(Cl)cc2)C1 [Example 12, Methyl ether of 1-parachlorophenyloxy-carbonyl-1,2,5,6-tetrahydropyridin-3-carboxaldehyde oxime]
- LD50 at 168 h (in vivo [5]): > 1000 mg/kg
- EC50 [1]: > 100 µM
- ED50 (in vivo [2]): > 50 mg/kg
- ED (-1 C) (Hypothermic activity; oral route (O.R.)): 2.2 mg/kg
- ED (-1 C) (Hypothermic activity; sub-cutaneous route (SC.R)): 2.9 mg/kg
- Variations of the body temperature ([6]; 3.12 mg/kg os, 0 min): +0.1 °C
- Variations of the body temperature ([6]; 3.12 mg/kg os, 30 min): -0.9 °C
- Variations of the body temperature ([6]; 3.12 mg/kg os, 60 min): -1.4 °C
- Variations of the body temperature ([6]; 3.12 mg/kg os, 120 min): -0.3 °C
- Variations of the body temperature ([6]; 3.12 mg/kg sc, 0 min): -0.1 °C
- Variations of the body temperature ([6]; 3.12 mg/kg sc, 30 min): -0.1 °C
- Variations of the body temperature ([6]; 3.12 mg/kg sc, 60 min): -1.1 °C
- Variations of the body temperature ([6]; 3.12 mg/kg sc, 120 min): -1.2 °C
- Variations of the body temperature ([6]; 3.12 mg/kg sc, 180 min): -0.5 °C

SMILES: CON=CC1=CCCN(C(=O)Oc2ccc(C(C)C)cc2)C1 [Example 13, Methyl ether of 1-p-isopropylphenyloxycarbonyl-1,2,5,6-tetrahydropyridin-3-carboxaldehyde oxime]
- LD50 at 168 h (in vivo [5]): > 1000 mg/kg
- EC50 [1]: > 100 µM
- ED50 (in vivo [2]): > 50 mg/kg
- ED (-1 C) (Hypothermic activity; oral route (O.R.)): 3.4 mg/kg
- ED (-1 C) (Hypothermic activity; sub-cutaneous route (SC.R)): 8.8 mg/kg
- Variations of the body temperature ([6]; 6.25 mg/kg os, 0 min): +0.2 °C
- Variations of the body temperature ([6]; 6.25 mg/kg os, 30 min): -0.4 °C
- Variations of the body temperature ([6]; 6.25 mg/kg os, 60 min): -1.6 °C
- Variations of the body temperature ([6]; 6.25 mg/kg os, 120 min): -0.4 °C
- Variations of the body temperature ([6]; 6.25 mg/kg os, 180 min): -0.1 °C
- Variations of the body temperature ([6]; 12.5 mg/kg sc, 0 min): +0.2 °C
- Variations of the body temperature ([6]; 12.5 mg/kg sc, 60 min): -0.7 °C
- Variations of the body temperature ([6]; 12.5 mg/kg sc, 120 min): -1.4 °C
- Variations of the body temperature ([6]; 12.5 mg/kg sc, 180 min): -1.1 °C

SMILES: CON=CC1=CCCN(C(=O)Oc2ccc(OC)c(OC)c2)C1 [Example 14]
- LD50 at 168 h (in vivo [5]): 175 mg/kg
- EC50 [1]: > 100 µM
- ED50 (in vivo [2]): > 50 mg/kg
- ED (-1 C) (Hypothermic activity; oral route (O.R.)): 0.7 mg/kg
- ED (-1 C) (Hypothermic activity; sub-cutaneous route (SC.R)): 0.7 mg/kg
- Variations of the body temperature ([6]; 1. mg/kg os, 0 min): +0.1 °C
- Variations of the body temperature ([6]; 1. mg/kg os, 30 min): -1.1 °C
- Variations of the body temperature ([6]; 1. mg/kg os, 60 min): -1.4 °C
- Variations of the body temperature ([6]; 1. mg/kg os, 120 min): -0.2 °C
- Variations of the body temperature ([6]; 1. mg/kg os, 180 min): +0.1 °C
- Variations of the body temperature ([6]; 1. mg/kg sc, 0 min): +0.2 °C
- Variations of the body temperature ([6]; 1. mg/kg sc, 30 min): -0.7 °C
- Variations of the body temperature ([6]; 1. mg/kg sc, 60 min): -1.3 °C
- Variations of the body temperature ([6]; 1. mg/kg sc, 120 min): -0.5 °C
